According to ChEMBL document CHEMBL1201862, “PubChem BioAssay data set” (2004):
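Where inhibition never reached the appropriate level, the endpoint shown equals the highest concentration tested. Otherwise, values were interpolated linearly from a five-concentration, 48-hour dose response in 96-well plates. Here, GI50 denotes the concentration required for 50% inhibition of growth.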 Calls of active or inactive are those of the source. No stated cut-off is given here; in the data, active = GI50 up to about 1.1 µM and inactive = higher. Where a SMILES comes first, the peptide text is derived from it. [ ]: non-standard residue; d: D form. The star is where a group is joined. NMeF = CN[CH](Cc1ccccc1)C(=O)O; NMeV = CN[CH](C(=O)O)C(C)C; Boc = CC(C)(C)OC(=O)*; OBn = c1ccc(CO*)cc1

Tests used:
Assay in all cases: inhibition of tumour cell growth, NCI panel, 48 h
[1] = system: UACC-62
[2] = system: SK-MEL-28
[3] = system: UACC-257
[4] = system: SN12C
[5] = system: LOX IMVI
[6] = system: HOP-92
[7] = system: UO-31
[8] = system: CAKI-1
[9] = system: CCRF-CEM
[10] = system: NCI-H226
[11] = system: TK-10
[12] = system: A498
[13] = system: M14
[14] = system: A549
[15] = system: HCC 2998
[16] = system: NCI-H23
[17] = system: SK-OV-3
[18] = system: HOP-62

Measured: GI50

COc1ccc(NC(=O)CC2SC(Nc3ccc(Cl)cc3C)=NC2=O)c([N+](=O)[O-])c1 (centres undefined)
inactive: [1] > 100 µM | [2] > 100 µM | [3] > 100 µM | [4] > 100 µM | [5] > 100 µM | [6] > 100 µM | [7] > 100 µM | [8] > 100 µM | [9] > 100 µM | [10] > 100 µM | [11] > 100 µM | [12] > 100 µM | [13] > 100 µM | [14] > 100 µM | [15] > 100 µM | [16] > 100 µM

O=P1(Oc2ccccc2)C(c2ccccc2)C(c2ccccc2)=NN1c1ccccc1 (centres undefined)
inactive: [1] 18.2 µM | [2] 25.6 µM | [3] 27.9 µM | [4] 25.9 µM | [5] 17.3 µM | [17] 22.6 µM | [8] 23.9 µM | [9] 30.4 µM | [10] 23.5 µM | [11] 38.7 µM | [12] 29.6 µM | [13] 19.7 µM | [14] 29.2 µM | [15] 28.8 µM | [16] 22.8 µM | [18] 24.6 µM

N=C(N)NS(=O)(=O)c1ccc(NC(=O)c2ccc(Cl)c3c(Nc4ccc(S(=O)(=O)N=C(N)N)cc4)c4ccccc4nc23)cc1
inactive: [1] 37.5 µM | [2] 61 µM | [3] 84.5 µM | [4] > 100 µM | [5] 50.9 µM | [6] 28.2 µM | [17] > 100 µM | [7] 83.9 µM | [8] 45.4 µM | [9] 43.1 µM | [12] > 100 µM | [13] > 100 µM | [14] > 100 µM | [16] > 100 µM | [18] 53.2 µM

[O-][n+]1c2c([n+]([O-])c3ccccc31)CCCCCCCCCC2
inactive: [1] > 100 µM | [2] > 100 µM | [3] 67.8 µM | [4] > 100 µM | [5] > 100 µM | [6] 67.8 µM | [17] > 100 µM | [7] > 100 µM | [8] > 100 µM | [9] 85.7 µM | [10] 14.2 µM | [11] > 100 µM | [13] > 100 µM | [14] > 100 µM | [16] > 100 µM

N#CCCC(CC#N)N1CCN(C(CC#N)CCC#N)CC1 (centres undefined)
inactive: [1] > 100 µM | [2] > 100 µM | [3] > 100 µM | [4] > 100 µM | [17] > 100 µM | [7] > 100 µM | [8] > 100 µM | [9] > 100 µM | [10] > 100 µM | [11] > 100 µM | [13] > 100 µM | [14] > 100 µM | [15] > 100 µM | [16] > 100 µM | [18] > 100 µM

O=C1C2c3[nH]c4ccccc4c3C3CCCCC3C2C(=O)N1c1ccccc1 (centres undefined)
inactive: [1] > 100 µM | [2] > 100 µM | [4] > 100 µM | [5] > 100 µM | [17] 20.7 µM | [7] > 100 µM | [9] 85.1 µM | [10] > 100 µM | [11] 46.5 µM | [12] 36.2 µM | [13] 36.6 µM | [14] > 100 µM | [15] > 100 µM | [16] > 100 µM

CC(=O)O[C@]12CCCC1C1(O)C(O)CCCC12 (some centres undefined)
inactive: [1] > 100 µM | [2] > 100 µM | [3] > 100 µM | [4] > 100 µM | [5] > 100 µM | [17] > 100 µM | [7] > 100 µM | [9] > 100 µM | [10] > 100 µM | [11] > 100 µM | [13] > 100 µM | [14] > 100 µM | [16] > 100 µM | [18] > 100 µM

c1ccc(CNn2nnc3ccccc32)cc1
inactive: [1] > 100 µM | [2] > 100 µM | [3] > 100 µM | [4] > 100 µM | [5] > 100 µM | [6] > 100 µM | [17] > 100 µM | [7] > 100 µM | [8] > 100 µM | [9] > 100 µM | [11] > 100 µM | [13] > 100 µM | [14] > 100 µM | [15] > 100 µM | [16] > 100 µM | [18] > 100 µM

O=C(O)c1ccc(C2C3C=CC(C3)C2[N+](=O)[O-])cc1 (centres undefined)
inactive: [1] > 100 µM | [2] > 100 µM | [3] > 100 µM | [4] > 100 µM | [5] > 100 µM | [17] > 100 µM | [7] > 100 µM | [8] > 100 µM | [9] > 100 µM | [10] > 100 µM | [11] > 100 µM | [12] > 100 µM | [13] > 100 µM | [14] > 100 µM | [15] > 100 µM | [16] > 100 µM | [18] > 100 µM

CC(C)C(NC(=O)OC(C)(C)C)C(=O)N(C)C(Cc1ccccc1)C(=O)N(C)C(C(=O)N(C)C(C(=O)OCc1ccccc1)C(C)C)C(C)C (centres undefined) (Boc-V[NMeF][NMeV][NMeV]-OBn; configuration not given here)
inactive: [1] > 100 µM | [3] 39.6 µM | [4] > 100 µM | [5] > 100 µM | [7] > 100 µM | [9] 48.5 µM | [10] > 100 µM | [11] > 100 µM | [13] 62.8 µM | [14] > 100 µM | [15] 44.2 µM | [16] > 100 µM | [18] > 100 µM

O=C(Nc1ccc(Cl)cc1C(F)(F)F)C(=O)C1CCCS1(=O)=O (centres undefined)
inactive: [1] > 100 µM | [2] > 100 µM | [3] > 100 µM | [4] > 100 µM | [5] > 100 µM | [6] > 10 µM | [8] > 100 µM | [9] > 100 µM | [10] > 100 µM | [11] > 100 µM | [12] > 100 µM | [13] > 100 µM | [14] > 100 µM | [15] > 100 µM | [16] > 100 µM | [18] > 100 µM

COc1ccc([C@@H]2CC(=O)NCCCNCCCCNCCCN2)cc1
inactive: [1] > 100 µM | [2] > 100 µM | [3] > 100 µM | [4] > 100 µM | [6] > 100 µM | [17] > 100 µM | [7] > 100 µM | [8] > 100 µM | [9] > 100 µM | [10] 79.6 µM | [11] > 100 µM | [12] > 100 µM | [13] > 100 µM | [14] > 100 µM | [15] > 100 µM | [16] > 100 µM | [18] > 100 µM
